Values quoted from earlier work, collected in patent US10596205B2, “Topical medicament for skin and mucosal injuries” (REV PHARMA Corp., priority 2018, dated 2020).

What was measured:
[1] = system: biofilm; conditions: animals, diet rich in the fatty acids
[2] = system: S. Mutans biofilm; conditions: for Biofilm biomass / Acidogenicity of the biofilm (pH drops): 10% sucrose then free fatty acid; for Acidogenicity of the biofilm (pH drops): compared with biofilms exposed to only 10% sucrose; for Enamel demineralization induced by sucrose: biofilms treated with the fatty acids
[3] = system: Gram-positive microorganisms; conditions: in vitro study

For `CCCCC/C=C\C/C=C\CCCCCCCC(=O)O` [linoleic, linoleic acid], the “Quantity of bacteria in biofilm” value [1] is listed as “lower quantity of bacteria”, the Biofilm biomass [2] is listed as “decline in biomass” and the “Acidogenicity of the biofilm (pH drops)” value [2] is listed as “lower pH drops”. The “Enamel demineralization induced by sucrose” value [2] was “significantly lower reduction”.
In the case of `CCCCCCCCCCCC(=O)O` [Lauric acid], the “Quantity of bacteria in biofilm” value [1] is listed as “lower quantity of bacteria” and the Bacteriostatic effect [3] is listed as “highly bacteriostatic”.
For `CCCCCCCC/C=C\CCCCCCCC(=O)O` [oleic, oleic acid], the Biofilm biomass [2] is listed as “decline in biomass”, the “Acidogenicity of the biofilm (pH drops)” value [2] is listed as “lower pH drops” and the “Enamel demineralization induced by sucrose” value [2] is listed as “significantly lower reduction”.
